Where a name gives a salt, the structure may show the parent alone. Read-outs that look alike come from different tables or passages of the source.

The target in series [1] is T1, recombinant mouse LPLA2 (PLA2G15) (Mus musculus, UniProt Q8VEB4).
T1 construct: purchased Proteos Inc. (Kalamazoo, MI)
T1 sequence (Q8VEB4 34-412): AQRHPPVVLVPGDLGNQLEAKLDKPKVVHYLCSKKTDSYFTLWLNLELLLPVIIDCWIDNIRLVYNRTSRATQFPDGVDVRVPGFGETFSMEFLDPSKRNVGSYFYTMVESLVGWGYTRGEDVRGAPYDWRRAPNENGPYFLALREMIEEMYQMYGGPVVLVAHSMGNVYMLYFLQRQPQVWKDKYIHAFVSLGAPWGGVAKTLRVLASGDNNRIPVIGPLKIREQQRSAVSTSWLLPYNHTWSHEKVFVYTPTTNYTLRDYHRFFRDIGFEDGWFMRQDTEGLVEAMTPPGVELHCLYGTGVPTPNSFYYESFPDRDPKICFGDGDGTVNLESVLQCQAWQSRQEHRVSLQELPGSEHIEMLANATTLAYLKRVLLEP
Description: Transacylase activity of LPLA2 (1-O-acyl-N-acetylsphingosine synthase, cell-free liposome assay). It is filed as biochemical. To be noted: for IC50: 1-O-acyl N-acetylsphingosine synthase activity, pH 4.5, DOPC/sulfatide liposomes, read-out: LPLA2 IC50.

The target of the next series is T2, LPLA2 (Mus musculus, UniProt Q8VEB4).
T2 construct: purchased Proteos Inc. (Kalamazoo, MI)
T2 sequence (Q8VEB4 34-412): T1 sequence (Q8VEB4 34-412)
Kind of series: LPLA2 thermal stability measurement (SYPRO Orange Tm). To be noted: N=3 ± SD. It is filed as binding.

For series [2] the following is noted: ref Pubchem and chEMBL databases; cited from earlier work.
A further series concerns phospholipidosis. To be noted: cited from earlier work.
The mark [3] stands for this setting: phospholipidosis reported in vitro, Refs of Table 1.

Turning to `C=CCc1ccccc1OCC(O)CNC(C)C` (stereo not shown) [Alprenolol, 1-(o-allylphenoxy)-3-(isopropylamino)-2-propanol], the IC50 in series [1] worked out at 173 µM. In addition, the “(ΔTm)c-(ΔTm)d, difference in melting temperature of LPLA2 alone or in the presence of drug” value (“(ΔTm)c-(ΔTm)d, difference” below) at LPLA2 is -1.00 ± 0.1 °C. Further, in series [2], the “pKa (basic)” value is recorded as 9.67. Moreover, the “In Vitro PLD” value in the series on phospholipidosis (setting [3]) is listed as “Yes”.

`CCN(CCCc1ccccc1)CCCc1ccccc1` [Alverine, ethyl bis (3-phenylpropyl)amine]: in series [1], the IC50 is 40 µM. In addition, the “(ΔTm)c-(ΔTm)d, difference” value on LPLA2 worked out at 0.14 ± 0.1 °C. The “pKa (basic)” value in series [2] is reported as 10.44. In addition, the “In Vitro PLD” value with phospholipidosis (setting [3]) is listed as “Yes”.

As for `CCC(C)(C)c1ccc(CC(C)CN2C[C@@H](C)O[C@@H](C)C2)cc1` (stereo partly drawn) [Amorolfine, 2R,6S-2,6-dimethyl-4-(2-{[4-(2-methylbutan-2-yl)phenyl]methyl}propyl)morpholine], the IC50 in series [1] was 41.5 µM. Also, the “(ΔTm)c-(ΔTm)d, difference” value at LPLA2 was -0.30 ± 0.1 °C. For the same compound, the “pKa (basic)” value in series [2] is reported as 8.49. Further, the “In Vitro PLD” value in the series on phospholipidosis (setting [3]) is “Yes”.

`CC(C)COCC(CN(Cc1ccccc1)c1ccccc1)N1CCCC1.Cl` (stereo not shown) [Bepridil hydrochloride, 1-isobutoxy-2-pyrrolidino-3-(N-benzylanilino) propane hydrochloride]: the concentration for half-maximal inhibition (IC50) in series [1] amounted to 7.17 µM. The “pKa (basic)” value in series [2] is reported as 9.16. Moreover, the “In Vitro PLD” value in the series on phospholipidosis is listed as “Yes”.

For `CC(C)NCC(O)COc1ccc(CCOCC2CC2)cc1` (stereo not shown) [Betaxolol, 1-{4-[2-(cyclopropylmethoxy)ethyl]phenoxy}-3-[(propan-2-yl)amino]propan-2-ol], in series [1] (acyl transferase activity), the “LPLA2 inhibition (in words)” value is listed as “no inhibitory activity”. For the same compound, at LPLA2, the “(ΔTm)c-(ΔTm)d, difference” value was -1.29 ± 0.9 °C. Further, in series [2], the “pKa (basic)” value is reported as 9.67. Further, the “In Vitro PLD” value with phospholipidosis (setting [3]) is given as “Yes”.

On to `CN(Cc1cc(Br)cc(Br)c1N)C1CCCCC1.Cl` [Bromhexine, 2-amino-3,5-dibromo-N-cyclohexyl-N-methylbenzylamine hydrochloride], for which the IC50 in series [1] amounted to 30.8 µM. For the same compound, the “(ΔTm)c-(ΔTm)d, difference” value at LPLA2 was determined as 1.26 ± 0.2 °C. Moreover, in series [2], the “pKa (basic)” value is recorded as 9.32. Further, in the series with phospholipidosis (setting [3]), the “In Vitro PLD” value is given as “Yes”.

On to `CC(C)C[C@H]1C(=O)N2CCC[C@H]2[C@]2(O)O[C@](NC(=O)[C@@H]3C=C4c5cccc6[nH]c(Br)c(c56)C[C@H]4N(C)C3)(C(C)C)C(=O)N12` [Bromocriptine, (4R,7R)-10-bromo-N-[(1S,2S,4R,7S)-2-hydroxy-7-(2-methylpropyl)-5,8-dioxo-4-(propan-2-yl)-3-oxa-6,9-diazatricyclo[7.3.0.0ˆ{2,6}]dodecan-4-yl]-6-methyl-6,11diazatetracyclo[7.6.1.0ˆ{2,7}.0ˆ{12,16}]hexadeca-1(16),2,9,12,14-pentaene-4-carboxamide], for which, in series [1], the IC50 was found to be 125 µM. Also, the “pKa (basic)” value in series [2] is 6.71. In the series with phospholipidosis (setting [3]), the “In Vitro PLD” value is “Yes”.

Consider `CN(C)CCC(c1ccc(Cl)cc1)c1ccccn1` (stereo not shown) [Chlorpheniramine, [3-(4-chlorophenyl)-3-(pyridin-2-yl)propyl] dimethylamine], for which the half-maximal inhibitory concentration (IC50) in series [1] turned out to be 147 µM. The “(ΔTm)c-(ΔTm)d, difference” value on LPLA2 is 0.34 ± 0.0 °C. The “pKa (basic)” value in series [2] is recorded as 9.47. For the same compound, the “In Vitro PLD” value in the series on phospholipidosis (setting [3]) is on record as “Yes”.

Take `CN(C)CC/C=C1/c2ccccc2Sc2ccc(Cl)cc21` [Chlorprothixene]: the IC50 in series [1] amounted to 7.78 µM. Besides, the “(ΔTm)c-(ΔTm)d, difference” value on LPLA2 is -2.0 ± 0.1 °C. The “pKa (basic)” value in series [2] is 9.76. For the same compound, the “In Vitro PLD” value in the series on phospholipidosis (setting [3]) is on record as “Yes”.

As to `Clc1ccc(C(OCCN2CCCCC2)c2ccccc2)cc1` (stereo not shown) [Cloperastin, 1-{2-[(4-chlorophenyl) (phenyl)methoxy]ethyl} piperidine], the IC50 in series [1] was 40.9 µM. Moreover, on LPLA2, the “(ΔTm)c-(ΔTm)d, difference” value was found to be 0 °C. Further, in series [2], the “pKa (basic)” value is reported as 8.82. Further, the “In Vitro PLD” value with phospholipidosis (setting [3]) is “Yes”.

`C[C@]12C[C@H](O)[C@H]3[C@@H](CCC4=CC(=O)CC[C@@]43C)[C@@H]1CC[C@@H]2C(=O)CO` [Corticosterone, (1S,2R,10S,11S,14S,15S,17S)-17-hydroxy-14-(2-hydroxyacetyl)-2,15-dimethyltetracyclo[8.7.0.0^2,^7.0^11,^15]heptadec-6-en-5-one]: the IC50 in series [1] worked out at 163 µM. The “(ΔTm)c-(ΔTm)d, difference” value at LPLA2 came out at 0 °C. The “pKa (basic)” value in series [2] is reported as -0.26. Further, the “In Vitro PLD” value in the series with phospholipidosis (setting [3]) was “Yes”.

Regarding `COc1cc2nc(N3CCN(C(=O)c4ccco4)C4CCCCC43)nc(N)c2cc1OC` (stereo not shown) [Cyclazosin, 1-(4-amino-6,7-dimethoxy-2-quinazolinyl)-4-(2-furanylcarbonyl) decahydroquinoxaline], in series [1], the IC50 worked out at 30.8 µM. The “(ΔTm)c-(ΔTm)d, difference” value on LPLA2 was found to be 0.18 ± 0.1 °C. In addition, the “pKa (basic)” value in series [2] was 9.89. The “In Vitro PLD” value in the series with phospholipidosis (setting [3]) is “Yes”.

Turning to `CN(C)CCOC(=O)C(c1ccccc1)C1(O)CCCC1` (stereo not shown) [Cyclopentolate, 2-(dimethylamino)ethyl 2-(1-hydroxycyclopentyl)-2-phenylacetate], the IC50 in series [1] is 32.2 µM. For the same compound, the “(ΔTm)c-(ΔTm)d, difference” value at LPLA2 is 0.87 ± 0.6 °C. The “pKa (basic)” value in series [2] was 8.42. Further, the “In Vitro PLD” value in the series with phospholipidosis (setting [3]) is reported as “Yes”.

As to `c1ccc2c(c1)CCc1ccccc1C2` [Dibenzosuberane, 10,11-dihydro-5H-dibenzo [a, d] cycloheptene-833-48-7], in series [1], the IC50 was 346 µM. Further, the “(ΔTm)c-(ΔTm)d, difference” value at LPLA2 was -1.94 ± 0.0 °C. The “pKa (basic)” value in series [2] was 10. For the same compound, the “In Vitro PLD” value in the series with phospholipidosis (setting [3]) is “Yes”.

For the compound `CCN(CC)CCOC(=O)C(c1ccccc1)C1CCCCC1` (stereo not shown) [Drofenine, hexahydroadiphenine], the IC50 in series [1] amounted to 7.29 µM. In addition, the “(ΔTm)c-(ΔTm)d, difference” value at LPLA2 worked out at 1.50 ± 0.1 °C. Besides, the “pKa (basic)” value in series [2] is given as 9.21. In addition, in the series with phospholipidosis (setting [3]), the “In Vitro PLD” value is “Yes”.

`C[C@]12C=CC(=O)N[C@@H]1CC[C@@H]1[C@@H]2CC[C@]2(C)[C@@H](C(=O)Nc3cc(C(F)(F)F)ccc3C(F)(F)F)CC[C@@H]12` [Dutasteride, (1S,2R,7R,10S,11S,14S,15S)-N-[2,5-bis (trifluoromethyl)phenyl]-2,15-dimethyl-5-oxo-6-azatetracyclo[8.7.0.0^2,^7.0^11,^15]heptadec-3-ene-14-carboxamide]: in series [1], the IC50 turned out to be 1050 µM. For the same compound, in series [2], the “pKa (basic)” value is 2.17. In addition, the “In Vitro PLD” value in the series with phospholipidosis (setting [3]) is on record as “Yes”.

With `CCOC(=O)c1cncn1[C@H](C)c1ccccc1` [Etomidate, ethyl 1-[(1R)-1-phenylethyl]-1H-imidazole-5-carboxylate], the IC50 in series [1] turned out to be 1150 µM. Besides, at LPLA2, the “(ΔTm)c-(ΔTm)d, difference” value was -0.76 ± 0.3 °C. Besides, the “pKa (basic)” value in series [2] is 4.54. Besides, the “In Vitro PLD” value in the series on phospholipidosis (setting [3]) is “Yes”.

As for `O=C(COc1ccc(Cl)cc1)N1CCN(Cc2ccc3c(c2)OCO3)CC1` [Fipexide, 1-(2-[4-chlorophenoxy]acetyl)-4-(3,4-methylenedioxybenzyl)piperazine], in series [1], the 50% inhibitory concentration (IC50) is 17.2 µM. Besides, the “(ΔTm)c-(ΔTm)d, difference” value on LPLA2 is -0.17 ± 0.0 °C. Also, the “pKa (basic)” value in series [2] is 6.09. In addition, the “In Vitro PLD” value with phospholipidosis (setting [3]) was “Yes”.

For the compound `CN(C)CCN(Cc1cccs1)c1ccccn1` [Methapyrilene, N-[2-(dimethylamino)ethyl]-N-[(thiophen-2-yl)methyl]pyridin-2-amine], the “pKa (basic)” value in series [2] was 8.85. Also, the “In Vitro PLD” value with phospholipidosis (setting [3]) is given as “Yes”.

As for `CN1CCN2c3ccccc3Cc3ccccc3C2C1` (stereo not shown) [Mianserin, 5-methyl-2,5 diazatetracyclo [13.4.0.0^2,^7.0^8,^1³] nonadeca-1(19),8,10,12,15,17-hexaene], in series [2], the “pKa (basic)” value is reported as 6.9. Further, the “In Vitro PLD” value in the series on phospholipidosis (setting [3]) is recorded as “Yes”.

On to `c1ccc2c(CC3=NCCN3)cccc2c1` [Naphazoline, 2-(naphthalen-1-ylmethyl)-4,5-dihydro-1H-imidazole], for which the “pKa (basic)” value in series [2] was 10.19. The “In Vitro PLD” value in the series on phospholipidosis (setting [3]) is “Yes”.

For the compound `CCN(CC)CCc1nc(-c2ccccc2)no1` [Oxolamine citrate, diethyl[2-(3-phenyl-1,2,4-oxadiazol-5-yl)ethyl]amine], in series [1], the IC50 came out at 369 µM. The “pKa (basic)” value in series [2] was 8.96. Also, the “In Vitro PLD” value in the series with phospholipidosis (setting [3]) was “Yes”.

For the compound `CCN(CC)CC#CCOC(=O)C(O)(c1ccccc1)C1CCCCC1` (stereo not drawn) [Oxybutynin, α-phenylcyclohexaneglycolic acid 4-(diethylamino)-2-butynyl ster hydrochloride], in series [2], the “pKa (basic)” value is 8.77. Besides, the “In Vitro PLD” value in the series with phospholipidosis (setting [3]) is on record as “Yes”.

As for `O=C(Nc1cccc2c(=O)cc(-c3nnn[nH]3)oc12)c1ccc(OCCCCc2ccccc2)cc1` [Pranlukast, N-[4-oxo-2-(2H-1,2,3,4-tetrazol-5-yl)-4H-chromen-8-yl]-4-(4-phenylbutoxy)benzamide], the “(ΔTm)c-(ΔTm)d, difference” value on LPLA2 came to 0 °C. For the same compound, in series [2], the “pKa (basic)” value is -1.7. The “In Vitro PLD” value in the series with phospholipidosis (setting [3]) is reported as “Yes”.

In the case of `CCCN(CCC)CCc1cccc2c1CC(=O)N2` [Ropinirole, 4-[2-(dipropylamino)ethyl]-2,3-dihydro-1H-indol-2-one], the “pKa (basic)” value in series [2] is recorded as 10.17. The “In Vitro PLD” value in the series with phospholipidosis (setting [3]) is given as “Yes”.

The record behind these values is article PMC8243516, “Inhibition of lysosomal phospholipase A2 predicts drug-induced phospholipidosis” (Journal of Lipid Research, 2021).
